Data from publication PMC8161055, “Synthesis and α-Glucosidase Inhibition Activity of 2-[3-(Benzoyl/4-bromobenzoyl)-4-hydroxy-1,1-dioxido-2H-benzo[e][1,2]thiazin-2-yl]-N-arylacetamides: An In Silico and Biochemical Approach” (Molecules, 2021).
Where two headings read alike, the source gives them in different places.

Experiments:
α-glucosidase = biological target: T1, α-glucosidase (Saccharomyces cerevisiae, UniProt P53341); test: biochemical; format: biochemical; details: for inhibition at 200 µM: read-out: Inhibitions (%); for effectiveness as inhibitor compared to acarbose: ratio of IC50 values vs acarbose
T1 construct: purchased Sigma-Aldrich, Munich, Germany
Experimental: In vitro analysis of all the synthesized compounds was performed in order to justify the validity of in silico outcomes. Results were found in good agreement with the in silico study. […] A general spectrophotometric technique was used to perform the α-glucosidase inhibition assay with slight modifications. […] The experiment was repeated thrice and inhibition percentages were calculated using the following formula. % Inhibition = [(A control − A sample) / A control] × 100(1) where ‘A’ stands for absorbance.

human 11β-HSD1 = system: human 11β-HSD1; parameters: method as in PMID 21212546; details: cited from earlier work

T1 sequence (P53341 whole entry): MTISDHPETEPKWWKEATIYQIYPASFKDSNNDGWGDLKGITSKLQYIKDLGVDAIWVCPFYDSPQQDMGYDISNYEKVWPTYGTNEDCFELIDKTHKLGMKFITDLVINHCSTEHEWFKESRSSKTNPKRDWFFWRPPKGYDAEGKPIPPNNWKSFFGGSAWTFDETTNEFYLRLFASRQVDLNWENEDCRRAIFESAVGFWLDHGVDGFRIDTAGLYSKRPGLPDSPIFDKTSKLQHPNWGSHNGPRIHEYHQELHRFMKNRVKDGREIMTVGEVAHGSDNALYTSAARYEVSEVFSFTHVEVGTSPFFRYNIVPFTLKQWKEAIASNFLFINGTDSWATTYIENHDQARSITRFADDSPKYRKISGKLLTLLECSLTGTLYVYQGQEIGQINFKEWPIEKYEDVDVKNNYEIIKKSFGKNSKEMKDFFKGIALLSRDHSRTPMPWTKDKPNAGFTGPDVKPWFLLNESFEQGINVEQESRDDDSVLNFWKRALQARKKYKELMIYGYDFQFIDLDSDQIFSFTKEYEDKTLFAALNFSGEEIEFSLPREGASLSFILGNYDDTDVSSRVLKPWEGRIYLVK

| Compound | IC50 (α-glucosidase; PNPG substrate, pH 6.8, 37 °C, read-out: IC50) [µM] | Inhibitions (%) (α-glucosidase; at 200 μM concentration) | melting point [°C] | inhibition at 200 µM (α-glucosidase) [%] | IC50 (α-glucosidase) [µM] | effectiveness as inhibitor compared to acarbose (α-glucosidase) | IC50 (human 11β-HSD1) [µM] |
| --- | --- | --- | --- | --- | --- | --- | --- |
| 2-(3-(4-Bromobenzoyl)-4-hydroxy-1,1-dioxido-2H-benzo[e][1,2]thiazin-2-yl)-N-(4-methoxyphenyl)acetamide [Compound 12m] | 58.5 | 65 |  |  |  |  |  |
| O=C(C1=C(O)c2ccccc2S(=O)(=O)N1)c1ccccc1 [Compound 9a, (4-Hydroxy-1,1-dioxido-2H-benzo[e][1,2]thiazin-3-yl)(phenyl)methanone] |  |  | 156 to 157 | 20 |  |  |  |
| O=C(C1=C(O)c2ccccc2S(=O)(=O)N1)c1ccc(Br)cc1 [Compound 9b, (4-Bromophenyl)(4-hydroxy-1,1-dioxido-2H-benzo[e][1,2]thiazin-3-yl)methanone] |  |  | 144 to 146 | 55 | > 100 |  |  |
| O=C(CN1C(C(=O)c2ccccc2)=C(O)c2ccccc2S1(=O)=O)Nc1ccccc1Cl [Compound 11a, 2-(3-Benzoyl-4-hydroxy-1,1-dioxido-2H-benzo[e][1,2]thiazin-2-yl)-N-(2-chlorophenyl)acetamide] |  |  | 141 to 142 | 39 |  |  |  |
| O=C(CN1C(C(=O)c2ccccc2)=C(O)c2ccccc2S1(=O)=O)Nc1cccc(Cl)c1 [Compound 11b, 2-(3-Benzoyl-4-hydroxy-1,1-dioxido-2H-benzo[e][1,2]thiazin-2-yl)-N-(3-chlorophenyl)acetamide] |  |  | 182 to 184 | 32 |  |  |  |
| O=C(CN1C(C(=O)c2ccccc2)=C(O)c2ccccc2S1(=O)=O)Nc1ccc(Cl)cc1 [Compound 11c, 2-(3-Benzoyl-4-hydroxy-1,1-dioxido-2H-benzo[e][1,2]thiazin-2-yl)-N-(4-chlorophenyl)acetamide] |  |  | 146 to 148 | 79 | 30.6 |  |  |
| Cc1ccccc1NC(=O)CN1C(C(=O)c2ccccc2)=C(O)c2ccccc2S1(=O)=O [Compound 11d, 2-(3-Benzoyl-4-hydroxy-1,1-dioxido-2H-benzo[e][1,2]thiazin-2-yl)-N-(o-tolyl)acetamide] |  |  | 165 to 167 | 10 |  |  |  |
| Cc1cccc(NC(=O)CN2C(C(=O)c3ccccc3)=C(O)c3ccccc3S2(=O)=O)c1 [Compound 11e, 2-(3-Benzoyl-4-hydroxy-1,1-dioxido-2H-benzo[e][1,2]thiazin-2-yl)-N-(m-tolyl)acetamide] |  |  | 177 to 178 | 15 |  |  |  |
| Cc1ccc(NC(=O)CN2C(C(=O)c3ccccc3)=C(O)c3ccccc3S2(=O)=O)cc1 [Compound 11f, 2-(3-Benzoyl-4-hydroxy-1,1-dioxido-2H-benzo[e][1,2]thiazin-2-yl)-N-(p-tolyl)acetamide] |  |  | 136 to 137 | 37 |  |  |  |
| O=C(CN1C(C(=O)c2ccccc2)=C(O)c2ccccc2S1(=O)=O)Nc1ccccc1[N+](=O)[O-] [Compound 11g, 2-(3-Benzoyl-4-hydroxy-1,1-dioxido-2H-benzo[e][1,2]thiazin-2-yl)-N-(2-nitrophenyl)acetamide] |  |  | 157 to 158 | 58 | 88.1 |  |  |
| O=C(CN1C(C(=O)c2ccccc2)=C(O)c2ccccc2S1(=O)=O)Nc1cccc([N+](=O)[O-])c1 [Compound 11h, 2-(3-Benzoyl-4-hydroxy-1,1-dioxido-2H-benzo[e][1,2]thiazin-2-yl)-N-(3-nitrophenyl)acetamide] |  |  | 170 to 172 | 63 | 47.1 |  |  |
| O=C(CN1C(C(=O)c2ccccc2)=C(O)c2ccccc2S1(=O)=O)Nc1ccc([N+](=O)[O-])cc1 [Compound 11i, 2-(3-Benzoyl-4-hydroxy-1,1-dioxido-2H-benzo[e][1,2]thiazin-2-yl)-N-(4-nitrophenyl)acetamide] |  |  | 194 to 195 | 77 | 40.4 |  |  |
| O=C(CN1C(C(=O)c2ccccc2)=C(O)c2ccccc2S1(=O)=O)Nc1cccc(Br)c1 [Compound 11j, 2-(3-Benzoyl-4-hydroxy-1,1-dioxido-2H-benzo[e][1,2]thiazin-2-yl)-N-(3-bromophenyl)acetamide] |  |  | 163 to 166 | 50 | > 100 |  |  |
| O=C(CN1C(C(=O)c2ccccc2)=C(O)c2ccccc2S1(=O)=O)Nc1ccc(Br)cc1 [Compound 11k, 2-(3-Benzoyl-4-hydroxy-1,1-dioxido-2H-benzo[e][1,2]thiazin-2-yl)-N-(4-bromophenyl)acetamide] |  |  | 150 to 153 | 13 |  |  |  |
| COc1ccccc1NC(=O)CN1C(C(=O)c2ccccc2)=C(O)c2ccccc2S1(=O)=O [Compound 11l, 2-(3-Benzoyl-4-hydroxy-1,1-dioxido-2H-benzo[e][1,2]thiazin-2-yl)-N-(2-methoxyphenyl)acetamide] |  |  | 199 to 200 | 54 | > 100 |  |  |
| COc1ccc(NC(=O)CN2C(C(=O)c3ccccc3)=C(O)c3ccccc3S2(=O)=O)cc1 [Compound 11m, 2-(3-Benzoyl-4-hydroxy-1,1-dioxido-2H-benzo[e][1,2]thiazin-2-yl)-N-(4-methoxyphenyl)acetamide] |  |  | 164 to 165 | 69 |  |  |  |
| O=C(CN1C(C(=O)c2ccc(Br)cc2)=C(O)c2ccccc2S1(=O)=O)Nc1ccccc1Cl [Compound 12a, 2-(3-(4-Bromobenzoyl)-4-hydroxy-1,1-dioxido-2H-benzo[e][1,2]thiazin-2-yl)-N-(2-chlorophenyl)acetamide] |  |  | 180 to 181 | 79 | 18.2 | roughly three-fold |  |
| O=C(CN1C(C(=O)c2ccc(Br)cc2)=C(O)c2ccccc2S1(=O)=O)Nc1cccc(Cl)c1 [Compound 12b, 2-(3-(4-Bromobenzoyl)-4-hydroxy-1,1-dioxido-2H-benzo[e][1,2]thiazin-2-yl)-N-(3-chlorophenyl)acetamide] |  |  | 148 to 150 | 47 |  |  |  |
| O=C(CN1C(C(=O)c2ccc(Br)cc2)=C(O)c2ccccc2S1(=O)=O)Nc1ccc(Cl)cc1 [Compound 12c, 2-(3-(4-Bromobenzoyl)-4-hydroxy-1,1-dioxido-2H-benzo[e][1,2]thiazin-2-yl)-N-(4-chlorophenyl)acetamide] |  |  | 181 to 184 | 61 | > 100 |  |  |
| Cc1ccccc1NC(=O)CN1C(C(=O)c2ccc(Br)cc2)=C(O)c2ccccc2S1(=O)=O [Compound 12d, 2-(3-(4-Bromobenzoyl)-4-hydroxy-1,1-dioxido-2H-benzo[e][1,2]thiazin-2-yl)-N-(o-tolyl)acetamide] |  |  | 193 to 194 | 76 | 20.8 | roughly three-fold |  |
| Cc1cccc(NC(=O)CN2C(C(=O)c3ccc(Br)cc3)=C(O)c3ccccc3S2(=O)=O)c1 [Compound 12e, 2-(3-(4-Bromobenzoyl)-4-hydroxy-1,1-dioxido-2H-benzo[e][1,2]thiazin-2-yl)-N-(m-tolyl)acetamide] |  |  | 143 to 144 | 71 | 35.1 |  |  |
| Cc1ccc(NC(=O)CN2C(C(=O)c3ccc(Br)cc3)=C(O)c3ccccc3S2(=O)=O)cc1 [Compound 12f, 2-(3-(4-Bromobenzoyl)-4-hydroxy-1,1-dioxido-2H-benzo[e][1,2]thiazin-2-yl)-N-(p-tolyl)acetamide] |  |  | 190 to 192 | 20 |  |  |  |
| O=C(CN1C(C(=O)c2ccc(Br)cc2)=C(O)c2ccccc2S1(=O)=O)Nc1ccccc1[N+](=O)[O-] [Compound 12g, 2-(3-(4-Bromobenzoyl)-4-hydroxy-1,1-dioxido-2H-benzo[e][1,2]thiazin-2-yl)-N-(2-nitrophenyl)acetamide] |  |  | 177 to 178 | 76 | 24.2 |  |  |
| O=C(CN1C(C(=O)c2ccc(Br)cc2)=C(O)c2ccccc2S1(=O)=O)Nc1cccc([N+](=O)[O-])c1 [Compound 12h, 2-(3-(4-Bromobenzoyl)-4-hydroxy-1,1-dioxido-2H-benzo[e][1,2]thiazin-2-yl)-N-(3-nitrophenyl)acetamide] |  |  | 208 to 209 | 58 | > 100 |  |  |
| O=C(CN1C(C(=O)c2ccc(Br)cc2)=C(O)c2ccccc2S1(=O)=O)Nc1ccc([N+](=O)[O-])cc1 [Compound 12i, 2-(3-(4-Bromobenzoyl)-4-hydroxy-1,1-dioxido-2H-benzo[e][1,2]thiazin-2-yl)-N-(4-nitrophenyl)acetamide] |  |  | 210 to 212 | 33 |  |  |  |
| O=C(CN1C(C(=O)c2ccc(Br)cc2)=C(O)c2ccccc2S1(=O)=O)Nc1cccc(Br)c1 [Compound 12j, 2-(3-(4-Bromobenzoyl)-4-hydroxy-1,1-dioxido-2H-benzo[e][1,2]thiazin-2-yl)-N-(3-bromophenyl)acetamide] |  |  | 145 to 147 | 12 |  |  |  |
| O=C(CN1C(C(=O)c2ccc(Br)cc2)=C(O)c2ccccc2S1(=O)=O)Nc1ccc(Br)cc1 [Compound 12k, 2-(3-(4-Bromobenzoyl)-4-hydroxy-1,1-dioxido-2H-benzo[e][1,2]thiazin-2-yl)-N-(4-bromophenyl)acetamide] |  |  | 200 to 203 | 48 |  |  |  |
| COc1ccccc1NC(=O)CN1C(C(=O)c2ccc(Br)cc2)=C(O)c2ccccc2S1(=O)=O [Compound 12l, 2-(3-(4-Bromobenzoyl)-4-hydroxy-1,1-dioxido-2H-benzo[e][1,2]thiazin-2-yl)-N-(2-methoxyphenyl)acetamide] |  |  | 186 to 187 | 34 |  |  |  |
| O=C(CN1C(C(=O)Nc2ccccc2)=C(O)c2ccccc2S1(=O)=O)Nc1cccc(C(F)(F)F)c1 [derivative 3] |  |  |  |  |  |  | 0.041 |
